In brackets after ≈: the same amount, converted by molar mass.
How the values were obtained:
[1] = Lipophilicity, log D of the compound at pH 7.4; format: physicochemical; conditions: buffer
[2] = Inhibition of Mycobacterium tuberculosis DprE1
[3] = test system: Mycobacterium tuberculosis; assay: Antimycobacterial activity against Mycobacterium tuberculosis H37Rv; format: functional
HepG2 = assay: Cytotoxicity against human HepG2 cells assessed as reduction in cell viability; format: cell-based

SMILES	logD [1]	IC50 [2] [nM]	pIC50 [2]	MIC [3] [µM]	IC50 (HepG2) [µM]
CC(Nc1ccc2c(c1)OCCO2)C(=O)Nc1ccc(Br)cn1 (centres undefined)	5.4	6310	5.2	80 (≈ 30.3 µg/mL)	
C[C@@H](Nc1ccc2c(c1)OCCO2)C(=O)Nc1ccc(Br)cc1	5.5	251	6.6	6.5 (≈ 2.45 µg/mL)	
CC(Nc1ccc(Br)cc1)C(=O)Nc1ccc(Br)cc1 (centres undefined)		3980	5.4		
CC(Nc1ccc2c(c1)NC(=O)CO2)C(=O)Nc1ccc(Br)cc1 (centres undefined)	4.2	> 100000	< 4		
CC(Nc1ccc2c(c1)OCC(=O)N2)C(=O)Nc1ccc(Br)cc1 (centres undefined)	3.9	> 100000	< 4		
CC(Nc1ccc2c(c1)OCO2)C(=O)Nc1ccc(Br)cc1 (centres undefined)		1000	6		
CC(Nc1ccc2c(c1)OCCO2)C(=O)Nc1ccc(-c2cccnc2)cc1 (centres undefined)	4.2	> 100000	< 4		
CC(Nc1ccc2c(c1)OCCO2)C(=O)Nc1ccc2cn[nH]c2c1 (centres undefined)	3	3980	5.4	31 (≈ 10.5 µg/mL)	
CC(Nc1ccc2c(c1)OCCO2)C(=O)Nc1ccc(C(F)(F)F)cc1 (centres undefined)		126	6.9		
CC(Nc1ccc2c(c1)OCCO2)C(=O)Nc1ccc2cc[nH]c2c1 (centres undefined)	4	794	6.1	32 (≈ 10.8 µg/mL)	
CC(Oc1ccc2c(c1)OCCO2)C(=O)Nc1ccc(Br)cc1 (centres undefined)	6.2	200	6.7	12 (≈ 4.54 µg/mL)	
CC(C(=O)Nc1ccc(Br)cc1)N(C)c1ccc2c(c1)OCCO2 (centres undefined)	6.7	63	7.2	2.5 (≈ 0.978 µg/mL)	
CC(Nc1ccc2c(c1)CCCC2)C(=O)Nc1ccc(Br)cc1 (centres undefined)	7.7	631	6.2	16 (≈ 5.97 µg/mL)	
CC(Nc1ccc2c(c1)OCCO2)C(=O)Nc1ccc(-c2cnco2)cc1 (centres undefined)	3.7	> 100000	< 4		
CC(Nc1ccc2c(c1)OCCO2)C(=O)Nc1ccc(Cl)cc1 (centres undefined)	5.2	398	6.4	8 (≈ 2.66 µg/mL)	
CNC(=O)C(C)Nc1ccc2c(c1)OCCO2 (centres undefined)		31600	4.5	> 125	
COc1cccc(NC(C)C(=O)Nc2ccc(Br)cc2)c1 (centres undefined)		1590	5.8		
CC(C)(Nc1ccc2c(c1)OCCO2)C(=O)Nc1ccc(Br)cc1	6.3	126	6.9	4 (≈ 1.57 µg/mL)	
NNC(=O)c1ccncc1 [ISONIAZID]				1.8 (≈ 0.247 µg/mL)	
C[C@H](Nc1ccc2c(c1)OCCO2)C(=O)Nc1ccc(Br)cc1	5.5	1000	6	13 (≈ 4.9 µg/mL)	
CC(Nc1ccc2c(c1)OCCO2)C(=O)N(C)C (centres undefined)	2.2	39800	4.4	> 125	

SMILES	logD [1]	IC50 [2] [nM]	pIC50 [2]	MIC [3] [µM]	IC50 (HepG2) [µM]
CC(Nc1ccc2c(c1)OCCO2)C(=O)NC1CCCCC1 (centres undefined)	4.4	39800	4.4	> 125	
O=C1C(Cc2ccc3c(c2)OCCO3)CCCN1c1ccc(Br)cc1 (centres undefined)	5.8	63100	4.2	110 (≈ 44.3 µg/mL)	
CC(Nc1ccc2c(c1)OCCO2)C(=O)Nc1nc2ccccc2[nH]1 (centres undefined)	3.7	3980	5.4	62 (≈ 21 µg/mL)	
CC(Nc1ccc2c(c1)OCCCO2)C(=O)Nc1ccc(Br)cc1 (centres undefined)	5.7	158	6.8	4 (≈ 1.57 µg/mL)	
CC(Nc1cnc2c(c1)OCCO2)C(=O)Nc1ccc(Br)cc1 (centres undefined)	4	2000	5.7	62 (≈ 23.5 µg/mL)	
CC(Nc1ccc2c(c1)OCCO2)C(=O)Nc1ccc(Br)nc1 (centres undefined)	4.2	1590	5.8	32 (≈ 12.1 µg/mL)	
CC(Nc1ccc2c(c1)OCCO2)C(=O)Nc1ccc(C#N)cc1 (centres undefined)	4.2	2000	5.7	31 (≈ 10 µg/mL)	
O=C1C(Cc2ccc3c(c2)OCCO3)CCN1c1ccc(Br)cc1 (centres undefined)	6	31600	4.5	> 125	
CCC(Nc1ccc2c(c1)OCCO2)C(=O)Nc1ccc(Br)cc1 (centres undefined)	6	3980	5.4	62 (≈ 24.3 µg/mL)	
CC(Nc1ccc2c(c1)OCCO2)C(=O)Nc1ccc(Br)cc1 (racemic)	5.5	63	7.2	7.8 (≈ 2.94 µg/mL)	> 100
CC(Nc1ccc2c(c1)NCCC2)C(=O)Nc1ccc(Br)cc1 (centres undefined)	6	1260	5.9	125 (≈ 46.8 µg/mL)	
COc1ccc(NC(C)C(=O)Nc2ccc(Br)cc2)cc1OC (centres undefined)	5.2	2000	5.7	40 (≈ 15.2 µg/mL)	
COc1cc(NC(C)C(=O)Nc2ccc(Br)cc2)cc(OC)c1 (centres undefined)		25100	4.6		
CC(Nc1ccc(Br)cc1)C(=O)Nc1ccc2c(c1)OCCO2 (centres undefined)	5.3	63100	4.2	125 (≈ 47.2 µg/mL)	
CC(Cc1ccc2c(c1)OCCO2)C(=O)Nc1ccc(Br)cc1 (centres undefined)		2000	5.7	110 (≈ 41.4 µg/mL)	
CC(Nc1ccc2c(c1)NCCO2)C(=O)Nc1ccc(Br)cc1 (centres undefined)	4.8	2510	5.6	> 125	
O=C(CNc1ccc2c(c1)OCCO2)Nc1ccc(Br)cc1	5.1	200	6.7	16 (≈ 5.81 µg/mL)	
CNC(=O)c1ccc(NC(=O)C(C)Nc2ccc3c(c2)OCCO3)cc1 (centres undefined)	2.4	> 100000	< 4		
Cc1ccc(NC(=O)C(C)Nc2ccc3c(c2)OCCO3)cc1 (centres undefined)	4.8	15800	4.8	125 (≈ 39 µg/mL)	
CC(C)C(Nc1ccc2c(c1)OCCO2)C(=O)Nc1ccc(Br)cc1 (centres undefined)	6.6	39800	4.4	> 125	
CC(Nc1ccc2c(c1)OCCO2)C(=O)Nc1ccccc1 (centres undefined)	4.3	63100	4.2	> 125	
